# Data published in patent publication US20060112446A1, “Transposon genes of rice, transformed plant and method of use” (priority 2001, published 2006).
# Experiments:
# [1] = system: transposon gene (430 bp, Sequence Number 1) in calli derived from Nihonbare seeds; assay: PCR detection of deletion (transposition) of the nonautonomous transposon gene in seed-derived calli grown on 5-azacytidine medium (Example 5); format: cell-based, rice (Oryza sativa), cultivar Nihonbare
# Protocol: Seeds of Nihonbare were sterilized in 3% sodium hypochlorite solution for 15˜30 min, washed with sterilized water, inoculated on a 90×20 mm of Petri dish (Iwaki Co.) containing 20˜30 ml of media at the rate of 9 seeds per dish and subjected to induction culture under light for 24 h at 30° C. We used a solid medium consisting of 4 g of CHU (N6) BASAL SALT MIXTURE® (Sigma Co.), 1 ml of MS VITAMIN SOLUTION® (Sigma Co.), 2 mg of 2,4-dichloro-phenoxyacetic acid (Sigma Co.), 0.3 g of casamino acids (DIFCO), 0.1 g of myo-inositol (Sigma Co.), 2.878 g proline (Wako), 30 g of sucrose (Wako), 2 g of Gelrite® (Wako) in 1 L of medium.
# After several days, calli were started forming from scutellum inside rice seeds and changed to cream-colored ones with 5 mm length on the 10th day of culture. The creamy-colored calli with 5mm length were transplanted to growth media supplemented with 5-azacytidine (Sigma Co.) at either 0 mM, 0.01 mM, 0.03 mM, 0.05 mM, 0.1 mM or 0.3 mM, respectively, and subjected to growth culture under light for 24 h at 30° C. We used a solid medium consisting of 4 g of CHU (N6) BASAL SALT MIXTURE® (Sigma Co.), 1 ml of MS VITAMIN SOLUTION® (Sigma Co.), 2 mg of 2, 4-dichloro-phenoxyacetic acid (Sigma Co.), 0.3 g of casamino acids (DIFCO), 0.1 g of myo-inositol (Sigma Co.), 2.878 g proline (Wako), 30 g of sucrose (Wako), 2 g of GELRITE® (Wako) in 1 L of medium. […]
# [2] = system: transposon gene with the nucleotide sequence of Sequence Number 3 in scutellum-derived calli; assay: PCR detection of deletion (transposition) of the autonomous transposon gene in scutellum-derived calli treated with 5-azacytidine (Example 9); format: cell-based, rice (Oryza sativa), cultivar Nihonbare; conditions: for The frequency of deletion (calli with deletion/calli examined) / The frequency of deletion (percent): scutellum-derived Nihonbare calli, 2 weeks growth culture
# Protocol: In this example, we examined the transposition activity of the nucleotide sequence of Sequence Number 3 in anther-derived calli and in scutellum-derived calli treated with 5-azacytidine.
# Seeds of Nihonbare, a rice cultivar, were sterilized in3% sodium hypochlorite solution for 15˜30 min, washed with sterilized water, inoculated on a 90×20 mm of Petri dish (Iwaki Co.) with 20˜30 ml of media at the rate of 9 seeds per dish and subjected to induction culture under light for 24 h at 30° C. Used was a solid medium consisting of 4 g of CHU (N6) BASAL SALT MIXTURE® (Sigma Co.), 1 ml of MS VITAMIN SOLUTION® (Sigma Co.), 2 mg of 2,4-dichloro-phenoxyacetic acid (Sigma Co.), 0.3 g of casamino acids (DIFCO), 0.1 g of myo-inositol (Sigma Co.), 2.878 g proline (Wako), 30 g of sucrose (Wako), 2 g of GELRITE® (Wako) in 1 L of medium. On the 10th day of inductive culture, the calli derived from induced seeds were transferred to a growth medium supplemented with 5-azacytidine (Sigma) at 0 mM, 0.1 mM or 0.5 mM and were subjected to growth culture underlight for 24 h at 33° C. Used was a solid medium consisting of 4 g of CHU (N6) BASAL SALT MIXTURE® (Sigma Co.), 1 ml of MS VITAMIN SOLUTION® (Sigma Co.), 2 mg of 2,4-dichloro-phenoxyacetic acid (Sigma Co.), 0.3 g of casamino acids (DIFCO), 0.1 g of myo-inositol (Sigma Co.), 2.878 g proline (Wako), 30 g of sucrose (Wako), 2 g of GELRITE® (Wako) in 1 L of medium. DNA was extracted from calli derived from seeds in growth culture for two weeks by DNEASY PLANT MINI KIT® (Qiagen).
# To amplify the DNA region containing the transposon DNA by PCR, we used the oligonucleotides comprising the sequences of Sequence Numbers 26 and 27 as PCR primers. Each reaction mixture (100 μl) contained 200 ng of DNA, 2.5 units of TAKARA LA TAQ® (Takara Co.), 10 μl of 10× LA PCR bufferII, 6 µl of 25 mM MgCl2, 8 μl of dNTP Mixture (2.5mM each dNTP) and 100 pmol of primers. Each cycle of the polymerase reaction consisted of a denaturation step at 94° C. for 30 sec and an extension step at 68° C. for 12 min. This cycle was repeated 35 times. After the reaction, PCR products were separated on 0.8% LO3 AGAROSE® (Takara Co.) gel electrophoresis.
structure (smiles),measurement,setting,value
Nc1ncn([C@@H]2O[C@H](CO)[C@@H](O)[C@H]2O)c(=O)n1 [5-azacytidine],DNA bands in PCR of the region containing the transposon gene (approx. 300 bp band = transposon gene deleted),"[1]; seed-derived Nihonbare calli, 0.03 mM-0.3 mM 5-azacytidine in growth medium, 2 weeks growth culture",Two DNA bands of approximately 730 bp and 300 bp were observed
same,Induction of transposition of the transposon gene,"[1]; seed-derived calli, 5-azacytidine treatment",could be induced even for seed-derived calli
same,The frequency of deletion (calli with deletion/calli examined),[2]; 0.1 mM 5-azacytidine,2/8
same,The frequency of deletion (percent),[2]; 0.1 mM 5-azacytidine,(25%)
same,The frequency of deletion (calli with deletion/calli examined),[2]; 0.5 mM 5-azacytidine,7/8
same,The frequency of deletion (percent),[2]; 0.5 mM 5-azacytidine,(87.5%)
same,Transposition of the transposon gene of Sequence Number 3,[2]; scutellum-derived calli treated with 5-azacytidine,high frequency of transposition
